Test results from ChEMBL document CHEMBL5465560, “Selectivity Literature for EUbOPEN Chemogenomic Library” (2024).
Each block holds one molecule with its values, some of them ahead of it.

Columns and labels:
[1] = molecular target: T1, 5-hydroxytryptamine receptor 3A (Homo sapiens) (UniProt P46098); assay: Selectivity interaction (Panel of kinases, GPCRs, ion channels and transporters (enzymatic assay)) EUB0000266bCl HTR3A
T1 sequence (whole entry): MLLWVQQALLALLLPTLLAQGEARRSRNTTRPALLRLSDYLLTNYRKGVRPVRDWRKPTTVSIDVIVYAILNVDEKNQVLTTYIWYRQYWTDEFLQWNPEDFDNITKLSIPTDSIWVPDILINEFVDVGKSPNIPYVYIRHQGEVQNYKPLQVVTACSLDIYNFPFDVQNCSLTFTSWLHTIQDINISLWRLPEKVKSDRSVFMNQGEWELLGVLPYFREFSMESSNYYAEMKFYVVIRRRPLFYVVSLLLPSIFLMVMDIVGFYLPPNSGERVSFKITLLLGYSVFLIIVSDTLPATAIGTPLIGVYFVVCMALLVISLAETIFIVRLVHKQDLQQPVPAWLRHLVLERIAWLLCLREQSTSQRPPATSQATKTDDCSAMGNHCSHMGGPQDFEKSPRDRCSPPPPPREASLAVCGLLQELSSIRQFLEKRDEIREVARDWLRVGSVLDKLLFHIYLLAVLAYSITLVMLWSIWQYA

[2] = molecular target: T2, Serine/threonine-protein kinase BRSK1 (Homo sapiens) (UniProt Q8TDC3); assay: Selectivity interaction (KinomeScan (DiscoverX)) EUB0000229b BRSK1; conditions: at 10 µM
T2 sequence (whole entry): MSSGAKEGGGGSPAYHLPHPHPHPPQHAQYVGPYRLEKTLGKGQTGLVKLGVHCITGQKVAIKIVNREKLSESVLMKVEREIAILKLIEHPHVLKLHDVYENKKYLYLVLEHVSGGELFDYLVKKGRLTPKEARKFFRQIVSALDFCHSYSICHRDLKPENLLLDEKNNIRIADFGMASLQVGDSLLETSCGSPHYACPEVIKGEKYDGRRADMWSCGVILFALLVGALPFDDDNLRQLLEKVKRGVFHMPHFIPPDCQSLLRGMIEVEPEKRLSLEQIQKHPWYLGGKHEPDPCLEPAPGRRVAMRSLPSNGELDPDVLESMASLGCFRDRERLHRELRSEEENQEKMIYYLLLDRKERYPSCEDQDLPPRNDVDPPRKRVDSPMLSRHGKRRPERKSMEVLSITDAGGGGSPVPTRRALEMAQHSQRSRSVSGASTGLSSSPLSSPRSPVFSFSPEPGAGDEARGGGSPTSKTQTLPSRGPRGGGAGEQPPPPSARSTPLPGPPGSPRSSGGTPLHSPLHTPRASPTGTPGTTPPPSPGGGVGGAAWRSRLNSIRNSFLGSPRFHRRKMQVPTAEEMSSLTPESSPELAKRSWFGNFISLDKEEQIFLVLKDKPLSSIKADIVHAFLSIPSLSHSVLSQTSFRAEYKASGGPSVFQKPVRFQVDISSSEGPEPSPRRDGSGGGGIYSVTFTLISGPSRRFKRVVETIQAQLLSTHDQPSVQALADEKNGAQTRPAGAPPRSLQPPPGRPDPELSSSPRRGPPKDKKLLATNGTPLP

[3] = molecular target: T3, Dual specificity protein kinase TTK (Homo sapiens) (UniProt P33981); assay: Selectivity interaction (KinomeScan (DiscoverX)) EUB0000092b TTK; conditions: at 10 µM
T3 sequence (whole entry): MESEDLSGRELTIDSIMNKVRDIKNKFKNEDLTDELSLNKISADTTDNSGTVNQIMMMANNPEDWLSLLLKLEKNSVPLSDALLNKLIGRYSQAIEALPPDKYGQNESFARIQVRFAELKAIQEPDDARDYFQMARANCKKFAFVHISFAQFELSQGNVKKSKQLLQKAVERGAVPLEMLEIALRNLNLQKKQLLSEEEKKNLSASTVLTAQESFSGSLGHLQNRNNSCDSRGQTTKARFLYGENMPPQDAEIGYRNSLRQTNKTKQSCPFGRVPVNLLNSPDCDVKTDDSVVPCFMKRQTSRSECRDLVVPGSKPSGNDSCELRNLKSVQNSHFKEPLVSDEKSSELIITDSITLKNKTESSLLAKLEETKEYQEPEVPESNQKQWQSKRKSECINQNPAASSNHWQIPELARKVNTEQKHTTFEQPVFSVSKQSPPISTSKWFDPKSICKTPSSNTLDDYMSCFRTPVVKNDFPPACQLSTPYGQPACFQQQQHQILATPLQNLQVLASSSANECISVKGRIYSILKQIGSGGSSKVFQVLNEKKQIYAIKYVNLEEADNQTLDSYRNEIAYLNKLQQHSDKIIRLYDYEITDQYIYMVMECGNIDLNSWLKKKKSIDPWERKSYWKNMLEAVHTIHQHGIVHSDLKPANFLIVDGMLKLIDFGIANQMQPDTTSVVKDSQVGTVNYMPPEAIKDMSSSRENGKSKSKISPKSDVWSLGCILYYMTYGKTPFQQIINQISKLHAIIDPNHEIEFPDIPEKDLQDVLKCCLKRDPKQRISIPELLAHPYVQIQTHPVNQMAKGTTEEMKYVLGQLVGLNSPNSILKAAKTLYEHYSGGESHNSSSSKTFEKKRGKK

[4] = molecular target: ALK tyrosine kinase receptor (Homo sapiens, UniProt Q9UM73); assay: Selectivity interaction (SelectScreen profiling (Invitrogen)) EUB0000607a ALK; conditions: at 2 µM
Sequence of ALK tyrosine kinase receptor (Q9UM73 19-1620 limits assumed): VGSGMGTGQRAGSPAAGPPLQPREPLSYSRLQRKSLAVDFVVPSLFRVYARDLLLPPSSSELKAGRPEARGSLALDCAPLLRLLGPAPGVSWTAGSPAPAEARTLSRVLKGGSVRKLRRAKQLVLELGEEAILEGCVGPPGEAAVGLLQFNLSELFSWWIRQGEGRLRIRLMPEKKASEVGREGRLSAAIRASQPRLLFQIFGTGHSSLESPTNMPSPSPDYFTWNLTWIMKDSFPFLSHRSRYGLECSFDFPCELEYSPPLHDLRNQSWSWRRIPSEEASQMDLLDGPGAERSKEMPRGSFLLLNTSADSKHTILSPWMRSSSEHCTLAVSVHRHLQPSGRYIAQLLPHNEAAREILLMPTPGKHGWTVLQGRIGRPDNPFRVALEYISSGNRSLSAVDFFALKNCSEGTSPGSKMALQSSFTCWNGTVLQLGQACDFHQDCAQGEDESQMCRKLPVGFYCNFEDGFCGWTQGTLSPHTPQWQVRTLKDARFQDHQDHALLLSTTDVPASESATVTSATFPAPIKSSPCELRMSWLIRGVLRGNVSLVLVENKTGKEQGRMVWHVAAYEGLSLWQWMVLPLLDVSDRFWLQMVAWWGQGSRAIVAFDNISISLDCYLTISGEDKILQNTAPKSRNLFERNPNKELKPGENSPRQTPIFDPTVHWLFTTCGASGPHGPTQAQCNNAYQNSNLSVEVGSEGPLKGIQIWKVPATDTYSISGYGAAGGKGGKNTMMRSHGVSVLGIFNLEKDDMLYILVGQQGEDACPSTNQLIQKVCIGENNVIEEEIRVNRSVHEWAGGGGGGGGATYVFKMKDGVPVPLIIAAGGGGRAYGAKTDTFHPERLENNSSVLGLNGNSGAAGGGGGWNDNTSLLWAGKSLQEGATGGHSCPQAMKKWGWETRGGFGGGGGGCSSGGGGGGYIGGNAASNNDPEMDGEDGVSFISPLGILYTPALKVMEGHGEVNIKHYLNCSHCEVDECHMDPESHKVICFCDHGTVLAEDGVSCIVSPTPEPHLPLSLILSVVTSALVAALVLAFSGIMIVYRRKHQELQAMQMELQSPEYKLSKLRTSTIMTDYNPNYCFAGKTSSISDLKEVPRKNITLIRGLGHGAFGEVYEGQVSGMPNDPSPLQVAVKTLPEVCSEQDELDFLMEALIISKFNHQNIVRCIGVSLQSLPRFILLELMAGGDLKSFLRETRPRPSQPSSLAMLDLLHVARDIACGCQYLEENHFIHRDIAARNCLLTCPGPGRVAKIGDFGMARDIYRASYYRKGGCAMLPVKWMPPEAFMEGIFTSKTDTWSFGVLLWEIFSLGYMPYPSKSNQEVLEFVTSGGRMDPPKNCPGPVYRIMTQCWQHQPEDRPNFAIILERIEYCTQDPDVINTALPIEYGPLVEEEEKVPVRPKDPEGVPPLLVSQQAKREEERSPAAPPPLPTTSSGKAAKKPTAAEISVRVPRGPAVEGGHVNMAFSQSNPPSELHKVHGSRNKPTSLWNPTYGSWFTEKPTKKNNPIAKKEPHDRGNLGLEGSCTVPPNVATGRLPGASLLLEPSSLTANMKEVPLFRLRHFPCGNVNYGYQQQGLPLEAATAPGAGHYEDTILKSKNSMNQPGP

[5] = molecular target: T4, Serine/threonine-protein kinase DCLK2 (Homo sapiens) (UniProt Q8N568); assay: Selectivity interaction (KinomeScan (DiscoverX)) EUB0000666a DCLK2; conditions: at 10 µM
T4 sequence (whole entry): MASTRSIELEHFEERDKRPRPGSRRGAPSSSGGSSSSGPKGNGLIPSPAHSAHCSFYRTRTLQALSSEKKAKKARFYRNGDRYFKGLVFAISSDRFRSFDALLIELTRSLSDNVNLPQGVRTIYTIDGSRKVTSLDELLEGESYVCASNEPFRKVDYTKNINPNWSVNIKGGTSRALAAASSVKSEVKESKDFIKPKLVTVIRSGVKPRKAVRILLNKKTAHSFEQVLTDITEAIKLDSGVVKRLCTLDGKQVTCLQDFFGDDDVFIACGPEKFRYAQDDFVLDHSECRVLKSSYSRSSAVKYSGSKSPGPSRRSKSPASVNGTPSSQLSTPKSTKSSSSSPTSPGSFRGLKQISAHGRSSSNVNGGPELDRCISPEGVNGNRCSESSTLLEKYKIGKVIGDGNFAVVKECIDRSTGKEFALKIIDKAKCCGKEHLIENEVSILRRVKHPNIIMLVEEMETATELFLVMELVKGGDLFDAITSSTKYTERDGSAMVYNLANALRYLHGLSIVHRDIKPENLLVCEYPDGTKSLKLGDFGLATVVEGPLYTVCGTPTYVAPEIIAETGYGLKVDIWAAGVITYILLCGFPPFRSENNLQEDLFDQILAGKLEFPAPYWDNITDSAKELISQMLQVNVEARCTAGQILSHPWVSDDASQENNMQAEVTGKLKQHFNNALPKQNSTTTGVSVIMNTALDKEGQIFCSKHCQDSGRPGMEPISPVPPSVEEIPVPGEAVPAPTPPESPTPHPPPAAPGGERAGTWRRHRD

- pXC50 [1]: < 4.3 M
Structure (SMILES): CCn1c(-c2nc3cc(C(=O)N4CCCC(N)C4)ccc3n2C)cc2ccccc21 (stereo not given)

Structure (SMILES): COc1cc(N(C)c2ccnc3ccc(C(F)(F)F)cc23)cc(OC)c1OC
- % binding [2]: 86%

Structure (SMILES): CCC(=O)N1CCN(c2ccc(-n3c(=O)ccc4cnc5ccc(-c6cnc7ccccc7c6)cc5c43)cc2C(F)(F)F)CC1
- % of control [3]: 9.6%

Structure (SMILES): CNC(=O)Nc1ccc(-c2nc(N3CC4CCC(C3)O4)c3cnn(C4CCC5(CC4)OCCO5)c3n2)cc1
- % of inhibition [4]: 0%

Structure (SMILES): O=C(NOC[C@H](O)CO)c1ccc(F)c(F)c1Nc1ccc(I)cc1F
- % of control [5]: 100%
